The values that follow come from paper PMC12395807, “Chemoreceptor family in plant-associated bacteria responds preferentially to the plant signal molecule glycerol 3-phosphate” (Genome Biology, 2025).

By Kd is commonly meant the constant that tells how readily two partners part at equilibrium. A lower Kd goes with a tighter complex.

Assay [1] deals with LBD of chemoreceptor R2 (WP_136157342.1) (Brenneria roseae, UniProt A0A2U1TV64, H128N/K136R). Format: binding. The procedure: (§1) Plasmids for the overexpression of the different proteins were transformed into E. coli BL21(DE3). The resulting strains were grown under continuous stirring (200 rpm) at 30 °C in 2-L Erlenmeyer flasks containing 500 mL of LB medium supplemented with 50 μg/mL kanamycin. At an OD660 of 0.5, protein expression was induced by the addition of 0.1 mM isopropyl β-D-1-thiogalactopyranoside. Growth was continued at 16 °C overnight prior to cell harvesting by centrifugation at 10,000 × g for 20 min. Cell pellets were resuspended in buffer A (Additional file 2: Table S4) and subsequently broken by French press treatment at 62.5 lb/in^2. After centrifugation at 20,000 × g for 30 min, the supernatants were loaded onto 5-mL HisTrap HP columns (Amersham Biosciences) equilibrated with buffer A, and the proteins were eluted with a linear gradient of buffer B (Additional file 2: Table S4). All proteins contain a hexa-histidine tag at the N-terminal extension (Additional file 2: Table S3) and were purified at 4 °C. The purified proteins were dialyzed overnight into the corresponding analysis buffers (Additional file 2: Table S4) for immediate analysis.
LBD of chemoreceptor R2 (WP_136157342.1), sequence (A0A2U1TV64 28-178 H128N/K136R): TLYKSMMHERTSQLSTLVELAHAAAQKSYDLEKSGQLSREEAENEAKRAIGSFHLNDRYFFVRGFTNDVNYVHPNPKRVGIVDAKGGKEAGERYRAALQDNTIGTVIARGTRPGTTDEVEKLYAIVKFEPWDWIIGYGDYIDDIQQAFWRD
(§2) All experiments were conducted on a VP microcalorimeter (Microcal, MA) at 15 °C for PacP-LBD and at 20 °C for the remaining proteins. Proteins were dialyzed into the analysis buffers specified in Additional file 2: Table S4, placed into the sample cell and titrated with aliquots of ligand solutions (1 to 10 mM) freshly prepared in dialysis buffer. The mean enthalpies measured from the injection of the ligands into the analysis buffer were subtracted from the raw titration data prior to data analysis with the MicroCal version of ORIGIN. The data were fitted with the “One binding site model” of ORIGIN.

Assay [2] has as its target LBD of chemoreceptor R10 (WP_028866120.1). Kind of assay: ITC binding to R10-LBD. Also noted: species or system Psychromonas aquimarina. The following applies: 20 °C, Nb = no binding. The protocol:
as §1, §2

Assay [3] has as its target LBD of chemoreceptor R5 (WP_028444678.1). Kind of assay: ITC binding to R5-LBD. The following applies: 20 °C, Nb = no binding. Also noted: species or system Chitinimonas koreensis. The procedure: as §1, §2
For assay [4], the target named is LBD of chemoreceptor R9 (WP_189529961.1) (Paludibacterium paludis, UniProt A0A918NWY2). Description: ITC binding to R9-LBD. The conditions noted are these: 20 °C, Nb = no binding. The procedure:
as §1, §2

Assay [5] has as its target LBD of chemoreceptor R6 (WP_174062248.1). Description: ITC binding to R6-LBD. Further details: species or system Agrobacterium larrymoorei. The conditions noted are these: 20 °C, Nb = no binding. The procedure: as §1, §2
Assay [6] addresses ligand binding domain of the chemoreceptor ECA_RS12390 (PacP-LBD, R1, WP_011094075.1) (Pectobacterium atrosepticum, UniProt Q6D464). Description: ITC binding to PacP-LBD. The conditions noted are these: 15 °C, Nb = no binding. The procedure: as §1, §2
The test system of assay [7] is ECA_RS12390-LBD (PacP-LBD). Kind of assay: Thermal shift ligand screening of PacP-LBD. It counts as binding, Pectobacterium atrosepticum. The following applies: thermal shift assay, Biolog arrays PM1, PM2A, PM3B, PM4A. The procedure: Assays were carried out on a MyIQ2 Real-Time PCR instrument (Bio-Rad, Hercules, CA, USA). Ligand solutions were prepared by dissolving the array compounds in 50 µL of Milli-Q water, which, according to the manufacturer, corresponds to a concentration of 10–20 mM. Freshly purified proteins were dialyzed into analysis buffer (Additional file 2: Table S4). Compound arrays PM1, PM2A (carbon sources), PM3B (nitrogen sources), and PM4A (phosphorus and sulfur sources) from Biolog (https://www.biolog.com/) were used. The compositions of these arrays are provided in Additional file 2: Table S1. The experiments were conducted in 96-well plates, and each assay mixture contained 20 µL of the dialyzed protein (at 80–50 µM), 2 µL of 5 × SYPRO orange (Life Technologies, Eugene, Oregon, USA), and 2.5 µL of the resuspended array compound or the equivalent amount of buffer in the ligand-free control. The samples were heated from 23 to 85 °C at a scan rate of 1 °C/min. The protein unfolding curves were monitored by detecting changes in SYPRO® Orange fluorescence. The Tm values were determined from the first derivative values of the raw fluorescence data.

Assay [8] has as its system P. atrosepticum SCRI1043 pacP mutant (MpacP). Kind of assay: Quantitative capillary chemotaxis assay, pacP mutant. The conditions noted are these: 1 mM ligand. It counts as cell-based, Pectobacterium atrosepticum. The text has this: A mutant defective in ECA_RS12390 was constructed by homologous recombination using a derivative plasmid of the suicide vector pKNG101. Briefly, a 0.5-kb fragment corresponding to the region encoding the LBD of ECA_RS12390 was amplified by the primers specified in Additional file 2: Table S2 and cloned into pGEM®-T. The resulting plasmid pGEM::ECA_RS12390 was digested with XmaI, and the 0.5-kb insert was cloned into the same site at pKNG101 to generate pKNG101::ECA_RS12390. This plasmid was subsequently transformed into P. atrosepticum SRCI1043 via biparental conjugation using E. coli β2163. All the plasmids were verified by PCR and sequencing. The pETb(+) derivatives encoding the LBD of the different receptors analyzed in this study (Table 1) were purchased from GeneScript. Plasmid pBBR-ECA_RS12390 was constructed by amplifying the pacP gene using the primers detailed in Additional file 2: Table S2 and cloning of the PCR product into the NdeI/BamHI sites of pBBR1MCS2_START. The sequences of the proteins analyzed in this study are provided in Additional file 2: Table S3. The ECA_RS12390 nucleotide sequence is available in the published genome of P. atrosepticum SCRI1043 [60].
(§3) Overnight cultures of P. atrosepticum SCRI1043 were grown at 30 °C in minimal medium. At an OD660 of 0.4–0.45, the cultures were washed twice with chemotaxis buffer (50 mM K2HPO4/KH2PO4, 20 μM EDTA, 0.05% (v/v) glycerol, pH 7.0) and diluted to an OD660 of 0.1 in the same buffer. Subsequently, 230 μL of the resulting bacterial suspension was placed into the wells of 96-well plates. One-microliter capillary tubes (P1424, Microcaps; Drummond Scientific) were heat-sealed at one end and filled with either chemotaxis buffer (negative control) or chemotaxis buffer containing PacP ligands at a concentration of 1 mM. The capillaries were immersed in the bacterial suspensions at their open ends. After 30 min at room temperature, the capillaries were removed from the bacterial suspensions, rinsed with sterile water, and the contents were expelled into 1 mL of 40 mM K2HPO4, 15 mM KH2PO4. Serial dilutions were plated onto minimal medium supplemented with 15 mM glucose as the carbon source. The number of colony-forming units was determined after 36 h of incubation at 30 °C. In all the cases, the data were corrected with the number of cells that swam into the buffer-containing capillaries.

Assay [9] has as its target LBD of chemoreceptor R7 (WP_019915375.1). Description: ITC binding to R7-LBD. Also noted: species or system Methyloversatilis discipulorum. The following applies: 20 °C, Nb = no binding. The protocol:
as §1, §2

The subject of a further assay is P. atrosepticum SCRI1043. Description: Quantitative capillary chemotaxis assay, wild type. It counts as cell-based, Pectobacterium atrosepticum. The conditions noted are these: wild type SCRI1043, 1 mM ligand, 30 min. The protocol: as §3
The subject of assay [10] is Pectobacterium atrosepticum SCRI1043. Kind of assay: Growth experiment, sole carbon source. The following applies: PFM9 minimal medium, 5 mM ligand, 30 °C, 48 h. It counts as cell-based. The protocol:
(§4) P. atrosepticum SCRI1043 was cultured overnight in phosphate-free M9-based medium (PFM9) supplemented with 20 mM glucose as the carbon source and 500 µM inorganic phosphate as the phosphate source. Cultures were washed and then diluted to an OD600 of 0.02 in PFM9 supplemented with different PacP ligands as the sole carbon or phosphorous source at a final concentration of 5 mM. Subsequently, 200 µL aliquots of these cultures were transferred into microwell plates, which were subsequently grown at 30 °C on a Bioscreen microbiological growth analyzer (Oy Growth Curves Ab Ltd., Helsinki, Finland) for 48 h.

For assay [11], the target named is LBD of chemoreceptor R4 (WP_158281851.1) (Rivihabitans pingtungensis, UniProt A0A318KJN4). Kind of assay: ITC binding to R4-LBD. The following applies: 20 °C, Nb = no binding. Also noted: species or system Rivicola pingtungensis. The procedure: as §1, §2
LBD of chemoreceptor R4 (WP_158281851.1), sequence (A0A318KJN4 entry or part of it): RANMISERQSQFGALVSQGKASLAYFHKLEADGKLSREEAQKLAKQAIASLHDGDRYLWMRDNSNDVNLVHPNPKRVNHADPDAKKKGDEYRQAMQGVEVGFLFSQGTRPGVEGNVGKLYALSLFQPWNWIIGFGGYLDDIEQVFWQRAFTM
For assay [12], the target named is LBD of chemoreceptor R3 (WP_006464688.1) (Herbaspirillum frisingense, UniProt A0ABU1PC34). Description: ITC binding to R3-LBD. The conditions noted are these: 20 °C, Nb = no binding. The procedure: as §1, §2
LBD of chemoreceptor R3 (WP_006464688.1), sequence (A0ABU1PC34 entry or part of it): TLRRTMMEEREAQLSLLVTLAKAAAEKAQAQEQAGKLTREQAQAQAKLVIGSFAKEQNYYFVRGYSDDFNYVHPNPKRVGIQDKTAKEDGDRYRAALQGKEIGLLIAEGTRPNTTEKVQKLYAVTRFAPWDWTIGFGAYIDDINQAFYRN
The test system of assay [13] is Pectobacterium atrosepticum SCRI1043. Description: Growth experiment, sole phosphorus source. The conditions noted are these: PFM9 minimal medium, 5 mM ligand, 30 °C, 48 h. It counts as cell-based. The procedure:
as §4

The mark [14] stands for this setting: ITC, 20 °C, R2 LBD, Nb = no binding.

Read-outs that look alike come from different tables or passages of the source.

LBD of chemoreceptor R9 (WP_189529961.1), sequence (A0A918NWY2 entry or part of it): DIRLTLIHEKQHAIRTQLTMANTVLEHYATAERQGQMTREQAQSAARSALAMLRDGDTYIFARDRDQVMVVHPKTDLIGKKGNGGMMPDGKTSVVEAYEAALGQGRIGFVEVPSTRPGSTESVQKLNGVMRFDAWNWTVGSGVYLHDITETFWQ
ligand binding domain of the chemoreceptor ECA_RS12390 (PacP-LBD, R1, WP_011094075.1), sequence (Q6D464 entry or part of it): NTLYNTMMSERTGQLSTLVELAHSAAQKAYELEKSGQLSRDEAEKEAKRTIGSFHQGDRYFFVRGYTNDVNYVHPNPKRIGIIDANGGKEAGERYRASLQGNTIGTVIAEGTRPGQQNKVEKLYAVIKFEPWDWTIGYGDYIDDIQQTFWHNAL
LBD of chemoreceptor R7 (WP_019915375.1), sequence (as listed by the source): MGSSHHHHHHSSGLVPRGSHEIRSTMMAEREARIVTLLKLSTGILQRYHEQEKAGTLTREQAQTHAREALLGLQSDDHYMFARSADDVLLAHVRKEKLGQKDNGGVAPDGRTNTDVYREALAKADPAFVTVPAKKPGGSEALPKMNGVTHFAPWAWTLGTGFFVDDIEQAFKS

As to `CC(=O)O` [acetic acid], the KD entry in [1] is “did not reveal binding”.

Regarding `O=C(O)/C=C/C(=O)O` [Fumarate], the KD result in [2] and in assay [4] was “Nb” throughout. Also, the equilibrium dissociation constant (Kd) is 68 ± 6 µM in assay [3] and 90 ± 4 µM in assay [5].

Consider `O=C(O)CC(CC(=O)O)C(=O)O` [Tricarballylate], for which the KD result in [2] and in assay [5] was “Nb” in each case. In addition, the Kd in [3] came out at 15 ± 1 µM; in [4] it was 138 ± 33 µM.

On to `CC(=O)C(=O)O` [Pyruvate], for which, in assay [6], the KD result is on record as “did not bind”.

Take `O=C(O)CC(Br)C(=O)O` (centres unmarked) [Bromosuccinate]: the KD result in assay [2], in assay [3] and in [5] was “Nb” in each case. Further, binding in assay [4] was put at a Kd of 200 ± 13 µM.

On to `O=C(O)CO` [Glycolate], for which the Kd in [2] is 322 ± 114 µM. The KD result in [3], in [4] and in assay [5] was “Nb” in each case.

For the compound `CCCCCC(=O)O` [caproic acid], the KD result in assay [1] (setting [14]) was “did not reveal binding”.

Turning to `O=C(O)CCC(=O)O` [Succinate], the dissociation constant Kd in [2] turned out to be 362 ± 23 µM; in assay [3], 127 ± 5 µM; in [5], 90 ± 4 µM. Moreover, the KD result in assay [4] is “Nb”.

Turning to `N[C@@H](CS(=O)(=O)O)C(=O)O` [L-cysteic acid], the KD entry in [1] (setting [14]) is listed as “did not reveal binding”.

For `O=C(O)CC(O)C(=O)O` (centres unmarked) [Malate], the KD result in [2] is given as “Nb”. Also, the dissociation constant (Kd) in assay [3] came to 61 ± 2 µM; in assay [4], 185 ± 5 µM; in [5], 63 ± 1 µM.

As to `NC(=O)OP(=O)(O)O` [carbamoylphosphate], the “Tm change with respect to the ligand-free protein” value in assay [7] is given as “significant increases in Tm”. The KD result in [6] was “did not result in measurable heat release”.

For the compound `O=CO` [formic acid], the KD entry in [1] was “did not reveal binding”.

For the compound `O=C(O)CC(O)(CC(=O)O)C(=O)O` [Citrate], the KD entry in [2], in assay [4] and in assay [5] was “Nb” throughout. In [3], this compound returned a Kd of 10 ± 2 µM.

`CCCCCCC(N)C(=O)O` (racemic) [D,L-aminocaprylic acid]: the KD result in [1] (setting [14]) is recorded as “did not reveal binding”.

On to `CCC(=O)O` [propionic acid], for which the KD entry in assay [1] (setting [14]) is recorded as “did not reveal binding”.

As to `CC(CC(=O)O)C(=O)O` (centres unmarked) [Methylsuccinate], the KD result in assay [2], in [3] and in assay [5] was “Nb” throughout. In assay [4], this compound returned a Kd of 254 ± 53 µM.

For the compound `C[C@H](O)C(=O)O` [L-lactate], in [2], the Kd is 463 ± 51 µM. Further, the KD result in [3], in assay [4] and in [5] was “Nb” each time.

As for `O=C(CO)COP(=O)(O)O` [dihydroxyacetone phosphate], the “chemotaxis (capillary assay)” value is recorded as “Only glycerol 2-phosphate served as an attractant for the mutant” in assay [8] and “Modest chemoattraction” with P. atrosepticum SCRI1043. Moreover, the KD entry in [9] is “Nb”; in assay [2], “Nb”; in assay [3] it was “Nb”; in [4], “Nb”; in [12], “bound”; in [5], “Nb”. Besides, the dissociation constant Kd in assay [6] was 13 ± 1 µM; in assay [11] it was 230 ± 10 µM; in [12] it was 109 ± 14 µM. For the same compound, the “growth as sole carbon source” value in assay [10] was “devoid of apparent metabolic value”. Further, in assay [13], the “growth as sole phosphorus source” value is recorded as “devoid of apparent metabolic value”.

As to `O=CC(CO)OP(=O)(O)O` (centres unmarked) [glyceraldehyde 2-phosphate], in [9], the KD entry was “bound”.

For the compound `CC(O)C(=O)O` (centres unmarked) [lactate], the KD result in assay [6] was “did not bind”.

On to `CC(=O)CC(=O)O` [acetoacetic acid], for which, in assay [1] (setting [14]), the KD result is given as “did not reveal binding”.

`O=C(O)[C@H](CO)OP(=O)(O)O` [2-phosphoglycerate]: the KD entry in assay [6] is on record as “No binding”.
